# US9133104B2 (Chroma Therapeutics Ltd., priority 2005, dated 2015)
# Experiments:
# [1] = molecular target: T1, histone deacetylase activity (HeLa nuclear extract); assay: HDAC fluorescent activity assay (Biomol Fluor de Lys), HeLa nuclear extract; type: biochemical; conditions: Fluor de Lys substrate, IC50 range
# T1 construct: Histone deacetylase activity from crude nuclear extract derived from HeLa cells was used for screening
# Procedure: The ability of compounds to inhibit histone deacetylase activities was measured using the commercially available HDAC fluorescent activity assay from Biomol. In brief, the Fluor de Lys™ substrate, a lysine with an epsilon-amino acetylation, is incubated with the source of histone deacetylase activity (HeLa nuclear extract) in the presence or absence of inhibitor. Deacetylation of the substrate sensitises the substrate to Fluor de Lys™ developer, which generates a fluorophore. Thus, incubation of the substrate with a source of HDAC activity results in an increase in signal that is diminished in the presence of an HDAC inhibitor.
# Data are expressed as a percentage of the control, measured in the absence of inhibitor, with background signal being subtracted from all samples, as follows:— % activity=((S^i−B)/(S^o−B))×100 where S^i is the signal in the presence of substrate, enzyme and inhibitor, S^o is the signal in the presence of substrate, enzyme and the vehicle in which the inhibitor is dissolved, and B is the background signal measured in the absence of enzyme.
# IC50 values were determined by non-linear regression analysis, after fitting the results of eight data points to the equation for sigmoidal dose response with variable slope (% activity against log concentration of compound), using Graphpad Prism software.
# Histone deacetylase activity from crude nuclear extract derived from HeLa cells was used for screening. The preparation, purchased from 4C (Seneffe, Belgium), was prepared from HeLa cells harvested whilst in exponential growth phase. The nuclear extract is prepared according to Dignam JD1983 Nucl. Acid. Res. 11, 1475-1489, snap frozen in liquid nitrogen and stored at −80° C. The final buffer composition was 20 mM Hepes, 100 mM KCl, 0.2 mM EDTA, 0.5 mM DTT, 0.2 mM PMSF and 20% (v/v) glycerol.
# U937 cancer cell line = assay: Cell inhibition assay (SRB cell viability), U937; type: cell-based; conditions: 72 h, IC50 range
# Procedure: (§1) The corresponding cancer cell lines (Hela, U937 and HUT) growing in log phase were harvested and seeded at 1000 cells/well (200 ul final volume) into 96-well tissue culture plates. Following 24 h of cell growth cells were treated with compounds (final concentration of 20 uM). Plates were then re-incubated for a further 72 h before a sulphorhodamine B (SRB) cell viability assay was conducted according to Skehan 1990 J Natl Canc Inst 82, 1107-1112.
# (§2) Data were expressed as a percentage inhibition of the control, measured in the absence of inhibitor, as follows:— % inhibition=100−((S^i/S^o)×100) where S^i is the signal in the presence of inhibitor and S^o is the signal in the presence of DMSO. IC50 values were determined by non-linear regression analysis, after fitting the results of eight data points to the equation for sigmoidal dose response with variable slope (% activity against log concentration of compound), using Graphpad Prism software. […] NT=Not tested
# HUT cancer cell line = assay: Cell inhibition assay (SRB cell viability), HUT; type: cell-based; conditions: HUT cells, 72 h, IC50 range
# Procedure: as §1, §2
# Hela cancer cell line = assay: Cell inhibition assay (SRB cell viability), Hela; type: cell-based; conditions: 72 h, Hela cells, IC50 range
# Procedure: as §1, §2
# [2] = Homo sapiens, U-937, U937 cells
IC50 [1] [µM],IC50 (U937 cancer cell line; [2]) [µM],IC50 (HUT cancer cell line) [µM],"IC50 (Hela cancer cell line; Homo sapiens, HeLa) [µM]",IC50 (Hela cancer cell line) [µM],IC50 (U937 cancer cell line; U937 cells) [µM],SMILES
0.101 to 1,0.33 to 3.3,0.33 to 3.3,> 3.3,–,–,"CCOC(=O)[C@H](Cc1ccccc1)NC(=O)[C@@H]1Cc2c([nH]c3ccccc23)CN1C(=O)CCCCCCC(=O)NO [Compound 7, (S)-2-{[(S)-2-(7-Hydroxycarbamoyl-heptanoyl)-2,3,4,9-tetrahydro-1H-beta-carboline-3-carbonyl]-amino}-3-phenyl-propionic acid ethyl ester]"
< 0.1,> 3.3,> 3.3,> 3.3,–,–,"O=C(CCCCCCC(=O)N1CCc2c([nH]c3ccccc23)C1C(=O)N[C@H](C(=O)O)c1ccccc1)NO (stereo partly drawn) [Compound 10, (S)-{[2-(7-Hydroxycarbamoyl-heptanoyl)-2,3,4,9-tetrahydro-1H-beta-carboline-1-carbonyl]amino}-phenyl-acetic acid]"
0.101 to 1,0.33 to 3.3,0.33 to 3.3,–,0.33 to 3.3,–,"COc1ccc2[nH]c3c(c2c1)CCN(C(=O)CCCCCCC(=O)NO)C3C(=O)N[C@H](C(=O)OC1CCCC1)c1ccccc1 (stereo partly drawn) [Compound 11, (S)-{[2-(7-Hydroxycarbamoyl-heptanoyl)-6-methoxy-2,3,4,9-tetrahydro-1H-beta-carboline-1-carbonyl]-amino}-phenyl-acetic acid cyclopentyl ester]"
0.101 to 1,> 3.3,> 3.3,> 3.3,–,–,"COc1ccc2[nH]c3c(c2c1)CCN(C(=O)CCCCCCC(=O)NO)C3C(=O)N[C@H](C(=O)O)c1ccccc1 (stereo partly drawn) [Compound 12, (S)-{[2-(7-Hydroxycarbamoyl-heptanoyl)-6-methoxy-2,3,4,9-tetrahydro-1H-beta-carboline-1-carbonyl]-amino}-phenyl-acetic acid]"
0.101 to 1,–,0.33 to 3.3,–,> 3.3,0.33 to 3.3,"COc1ccc2[nH]c3c(c2c1)CCN(C(=O)CCCCCCC(=O)NO)C3C(=O)N[C@H](C(=O)OC1CCCC1)c1ccccc1 (stereo partly drawn) [Compound 13, (S)-{[2-(7-Hydroxycarbamoyl-heptanoyl)-6-methoxy-2,3,4,9-tetrahydro-1H-beta-carboline-1-carbonyl]amino}-phenyl-acetic acid cyclopentyl ester]"
> 1,> 3.3,> 3.3,> 3.3,–,–,"O=C(CCCCCCC(=O)N1CCc2ccc(C(=O)N[C@H](C(=O)O)c3ccccc3)cc2C1)NO [Compound 16, (S)-{[2-(7-Hydroxycarbamoyl-heptanoyl)-1,2,3,4-tetrahydro-isoquinoline-7-carbonyl]-amino}-phenyl-acetic acid]"
0.101 to 1,0.33 to 3.3,0.33 to 3.3,0.33 to 3.3,–,–,"O=C(CCCCCCC(=O)Nc1ccc(S(=O)(=O)N[C@H](C(=O)OC2CCCC2)c2ccccc2)cc1)NO [Compound 22, (S)-[4-(7-Hydroxycarbamoyl-heptanoylamino)-benzenesulfonylamino]-phenyl-acetic acid cyclopentyl ester]"
0.101 to 1,> 3.3,> 3.3,> 3.3,–,–,"O=C(CCCCCCC(=O)Nc1ccc(S(=O)(=O)N[C@H](C(=O)O)c2ccccc2)cc1)NO [Compound 23, (S)-[4-(7-Hydroxycarbamoyl-heptanoylamino)-benzenesulfonylamino]-phenyl-acetic acid]"

# More lines, now with the values behind:
SMILES,IC50 [1] [µM],IC50 (U937 cancer cell line; [2]) [µM],IC50 (HUT cancer cell line) [µM],"IC50 (Hela cancer cell line; Homo sapiens, HeLa) [µM]",IC50 (Hela cancer cell line) [µM],IC50 (U937 cancer cell line; U937 cells) [µM]
"O=C(CCCCCCC(=O)N1Cc2[nH]c3ccccc3c2C[C@@H]1C(=O)N[C@@H](Cc1ccccc1)C(=O)O)NO [Compound 6, (S)-2-{[(R)-2-(7-Hydroxycarbamoyl-heptanoyl)-2,3,4,9-tetrahydro-1H-beta-carboline-3-carbonyl]-amino}-3-phenyl-propionic acid]",< 0.1,> 3.3,> 3.3,> 3.3,–,–
"O=C(CCCCCCC(=O)N1Cc2[nH]c3ccccc3c2C[C@H]1C(=O)N[C@@H](Cc1ccccc1)C(=O)O)NO [Compound 8, (S)-2-{[(S)-2-(7-Hydroxycarbamoyl-heptanoyl)-2,3,4,9-tetrahydro-1H-beta-carboline-3-carbonyl]-amino}-3-phenyl-propionic acid]",0.101 to 1,> 3.3,> 3.3,> 3.3,–,–
"O=C(CCCCCCC(=O)N1CCc2c([nH]c3ccccc23)C1C(=O)NC(C(=O)OC1CCCC1)c1ccccc1)NO [Compound 9, (S)-{[2-(7-Hydroxycarbarnoyl-heptanoyl)-2,3,4,9-tetrahydro-1H-beta-carboline-1-carbonyl]-amino}-phenyl-acetic acid cyclopentyl ester]",0.101 to 1,0.33 to 3.3,0.33 to 3.3,0.33 to 3.3,–,–
"COc1ccc2[nH]c3c(c2c1)CCN(C(=O)CCCCCCC(=O)NO)C3C(=O)N[C@H](C(=O)O)c1ccccc1 (stereo partly drawn) [Compound 14, (S)-{[2-(7-Hydroxycarbamoyl-heptanoyl)-6-methoxy-2,3,4,9-tetrahydro-1H-beta-carboline-1-carbonyl]-amino}-phenyl-acetic acid]",0.101 to 1,–,> 3.3,–,> 3.3,> 3.3
"O=C(CCCCCCC(=O)N1CCc2ccc(C(=O)N[C@H](C(=O)OC3CCCC3)c3ccccc3)cc2C1)NO [Compound 15, (S)-{[2-(7-Hydroxycarbamoyl-heptanoyl)-1,2,3,4-tetrahydro-isoquinoline-7-carbonyl]-amino}-phenyl-acetic acid cyclopentyl ester]",> 1,0.33 to 3.3,0.33 to 3.3,> 3.3,–,–
"O=C(CCCCCCC(=O)Nc1ccc(C(=O)N[C@H](C(=O)OC2CCCC2)c2ccccc2)cc1)NO [Compound 17, (S)-[4-(7-Hydroxycarbamoyl-heptanoylamino)-benzoylamino]-phenyl-acetic acid cyclopentyl ester]",0.101 to 1,0.33 to 3.3,0.33 to 3.3,> 3.3,–,–
"O=C(CCCCCCC(=O)Nc1ccc(C(=O)N[C@H](C(=O)O)c2ccccc2)cc1)NO [Compound 18, (S)-[4-(7-Hydroxycarbamoyl-heptanoylamino)-benzoylamino]-phenyl-acetic acid]",0.101 to 1,> 3.3,> 3.3,> 3.3,–,–
"CC(C)(C)OC(=O)[C@@H](NC(=O)[C@H]1Cc2c([nH]c3ccccc23)CN1C(=O)CCCCCCC(=O)NO)c1ccccc1 [Compound 19, (S)-{[(R)-2-(7-Hydroxycarbamoyl-heptanoyl)-2,3,4,9-tetrahydro-1H-beta-carboline-3-carbonyl]-amino}-phenyl-acetic acid tert-butyl ester]",0.101 to 1,0.33 to 3.3,0.33 to 3.3,0.33 to 3.3,–,–
"O=C(CCCCCCC(=O)Nc1ccc(CN[C@H](C(=O)OC2CCCC2)c2ccccc2)cc1)NO [Compound 20, (S)-[4-(7-Hydroxycarbamoyl-heptanoylamino)-benzylamino]-phenyl-acetic acid cyclopentyl ester]",0.101 to 1,< 0.33,0.33 to 3.3,0.33 to 3.3,–,–
"O=C(CCCCCCC(=O)Nc1ccc(CN[C@H](C(=O)O)c2ccccc2)cc1)NO [Compound 21, (S)-[4-(7-Hydroxycarbamoyl-heptanoylamino)-benzylamino]-phenyl-acetic acid]",0.101 to 1,> 3.3,> 3.3,> 3.3,–,–
